Here are results for 15 compounds from PubChem BioAssay AID488803 (Sanford-Burnham Center for Chemical Genomics, 2010).

pIC50: −log10 of the molar value. Calls of active or inactive are those of the source.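 The calls were made as follows: active = mean IC50 below 10 µM; inactive = the rest.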

For this experiment, the target named is Apelin receptor (Homo sapiens) (UniProt P35414). Kind of experiment: APJ antagonists, beta-arrestin recruitment, SAR follow-up, cell-based, luminescence, set 2 (AID 488803). To be noted: CHO-K1 APJ PathHunter beta-arrestin, antagonist. Background: Recruitment of arrestin is a read-out of receptor activation apart from second messengers.
Chain of Apelin receptor (Homo sapiens) (P35414 whole entry, looked up): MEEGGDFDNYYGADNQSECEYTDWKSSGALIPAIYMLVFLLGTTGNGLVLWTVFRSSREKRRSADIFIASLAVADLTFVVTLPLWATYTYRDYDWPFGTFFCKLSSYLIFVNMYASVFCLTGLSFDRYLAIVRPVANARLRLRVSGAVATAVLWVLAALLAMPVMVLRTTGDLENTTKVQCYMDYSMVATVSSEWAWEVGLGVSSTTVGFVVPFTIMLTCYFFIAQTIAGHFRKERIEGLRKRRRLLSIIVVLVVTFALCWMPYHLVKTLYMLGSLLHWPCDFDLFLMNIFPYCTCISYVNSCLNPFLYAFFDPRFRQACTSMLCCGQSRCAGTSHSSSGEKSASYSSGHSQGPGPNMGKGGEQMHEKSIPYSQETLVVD
Take `O=C(Oc1coc(CSc2ncccn2)cc1=O)c1cc(Cl)ccc1[N+](=O)[O-]`: the IC50 was > 79 µM (inactive).

For `COc1ccc(NC2C(=O)Nc3ccccc32)cc1` (stereo not given), the IC50 is > 79 µM (inactive).

Regarding `C=CCOc1cccc(CSc2ncccn2)c1`, the IC50 was > 79 µM (inactive).

As to `CC1(C)CC2(CC(c3ccc(Cl)cc3)c3ccc(O)cc3O2)NC(=S)N1` (stereo not given), the IC50 entry was “inactive”.

Take `COc1ccc(C2CC3(CC(C)(C)NC(=S)N3)Oc3cc(O)cc(C)c32)cc1` (stereo not given): the IC50 result is “inactive”.

Regarding `CCCCOc1ccc(C(=O)Oc2coc(CSc3ncccn3)cc2=O)cc1`, the IC50 is > 79 µM (inactive).

For `Cc1ccnc(SCc2cc(=O)c(OC(=O)c3cccc(Cl)c3)co2)n1`, the IC50 was > 79 µM (inactive).

As to `Cc1ccnc(SCc2cc(=O)c(OC(=O)c3ccco3)co2)n1`, the IC50 is > 79 µM (inactive).

Take `CC(C)(C)c1ccc(C(=O)Oc2coc(CSc3ncccn3)cc2=O)cc1`: the IC50 was > 79 µM (inactive).

In the case of `Cc1ccc(C)c(NCC(O)c2ccc(Cl)cc2)c1` (stereo not given), the IC50 is > 79 µM (inactive).

In the case of `O=c1cc(CSc2ccccc2)occ1O`, the IC50 was > 79 µM (inactive).

For the compound `O=C(Oc1coc(CSc2ncccn2)cc1=O)c1cc([N+](=O)[O-])ccc1Cl`, the IC50 entry was “inactive”.

Turning to `O=C(Oc1coc(CSc2ncccn2)cc1=O)c1ccc(Cl)c([N+](=O)[O-])c1`, the pIC50 is 5.21.

As for `Cc1cccc(C2CC3(CC(C)(C)NC(=S)N3)Oc3cc(O)c(Cl)cc32)c1` (stereo not given), the IC50 entry is “inactive”.

Turning to `Cc1cc(C)nc(SCc2cc(=O)c(OC(=O)c3ccc(S(=O)(=O)N(C)C)cc3)co2)n1`, the IC50 was > 79 µM (inactive).

The IC50 is the concentration needed to halve the response being measured. What is called pIC50 is the negative decadic logarithm of the IC50, by convention in mol/L.
